Where two headings read alike, the source gives them in different places.
Assays:
[1] = DPPH free radical scavenging assay; conditions: for DPPH radical % Inhibition (Mean±SEM): n 3; for IC50: read-out: DPPH scavenging IC50
[2] = ABTS free radical scavenging assay; conditions: for ABTS radical % Inhibition (Mean±SEM): n 3; for IC50: read-out: ABTS scavenging IC50
[3] = molecular target: T1, butyrylcholinesterase (BChE) (Equus caballus, UniProt P81908); test: biochemical; conditions: read-out: BChE % Inhibition (Mean±SEM)
T1 sequence (P81908 whole entry): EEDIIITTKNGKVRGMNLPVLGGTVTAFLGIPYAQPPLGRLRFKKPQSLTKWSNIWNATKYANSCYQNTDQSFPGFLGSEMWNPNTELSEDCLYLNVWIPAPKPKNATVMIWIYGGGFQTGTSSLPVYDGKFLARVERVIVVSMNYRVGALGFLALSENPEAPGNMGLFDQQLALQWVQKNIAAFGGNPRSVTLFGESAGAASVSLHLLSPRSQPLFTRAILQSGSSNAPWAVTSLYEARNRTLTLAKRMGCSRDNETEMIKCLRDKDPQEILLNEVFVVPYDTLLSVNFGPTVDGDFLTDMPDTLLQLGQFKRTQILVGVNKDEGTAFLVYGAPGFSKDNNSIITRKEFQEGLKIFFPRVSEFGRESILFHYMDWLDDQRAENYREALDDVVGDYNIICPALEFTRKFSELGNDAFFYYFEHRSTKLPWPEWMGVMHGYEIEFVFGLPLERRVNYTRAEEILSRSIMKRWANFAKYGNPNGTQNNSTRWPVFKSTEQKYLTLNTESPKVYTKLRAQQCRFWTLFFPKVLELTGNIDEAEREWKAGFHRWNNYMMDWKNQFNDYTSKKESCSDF

[4] = molecular target: T1, butyrylcholinesterase (BChE); conditions: n 3

Compound | DPPH radical % Inhibition (Mean±SEM) ([1]; 15.62 µg/mL) [%] | DPPH radical % Inhibition (Mean±SEM) ([1]; 31.25 µg/mL) [%] | DPPH radical % Inhibition (Mean±SEM) ([1]; 62.5 µg/mL) [%] | DPPH radical % Inhibition (Mean±SEM) ([1]; 125 µg/mL) [%] | DPPH radical % Inhibition (Mean±SEM) ([1]; 250 µg/mL) [%] | DPPH radical % Inhibition (Mean±SEM) ([1]; 500 µg/mL) [%] | DPPH radical % Inhibition (Mean±SEM) ([1]; 1000 µg/mL) [%] | IC50 [1] [µM] | ABTS scavenging IC50 [2] [µg/mL] | ABTS radical % Inhibition (Mean±SEM) ([2]; 15.62 µg/mL) [%] | ABTS radical % Inhibition (Mean±SEM) ([2]; 31.25 µg/mL) [%] | ABTS radical % Inhibition (Mean±SEM) ([2]; 62.5 µg/mL) [%] | ABTS radical % Inhibition (Mean±SEM) ([2]; 125 µg/mL) [%] | ABTS radical % Inhibition (Mean±SEM) ([2]; 250 µg/mL) [%] | ABTS radical % Inhibition (Mean±SEM) ([2]; 500 µg/mL) [%] | ABTS radical % Inhibition (Mean±SEM) ([2]; 1,000 µg/mL) [%] | IC50 [2] [µM] | other results
O=C1O[C@H]([C@@H](O)CO)C(O)=C1O [Ascorbic Acid, reference compound] | 77.28±0.79 | 82.74±0.23 | 84.44±0.15 | 87.25±0.48 | 91.54±0.37 | 93.65±0.54 | 95.63±0.12 | 0.173 | <0.1 | 77.65±0.32 | 79.29±0.91 | 81.75±0.85 | 84.68±0.56 | 85.34±0.47 | 88.25±0.87 | 92.36±0.65 | 0.129 | DPPH scavenging IC50 [1]: <0.1 µg/mL
COc1ccc2c3c1O[C@H]1C[C@@H](O)C=C[C@@]31CCN(C)C2 [Galantamine] |  |  |  |  |  |  |  |  |  |  |  |  |  |  |  |  |  | inhibition at 15.62 µg/mL [3]: 82.76 ± 0.44%
({3-[(4-Methoxy-2-Nitrophenyl) Carbamoyl] Propanoyl} Zincio 3-[(2-Methoxy-5-Nitrophenyl) Carbamoyl] Propanoate Pyridine [AAZ8] | 69.87±0.59 | 73.47±0.26 | 75.68±0.97 | 77.85±0.39 | 79.54±0.63 | 81.69±0.45 | 83.97±0.12 | 29 | 29 | 65.39±0.89 | 70.28±0.36 | 73.62±0.29 | 77.45±0.87 | 78.36±0.58 | 79.27±0.64 | 81.35±0.35 | 41 | BChE % Inhibition (Mean±SEM) ([4]; 15.62 µg/mL): 77.93±0.78 %; BChE % Inhibition (Mean±SEM) ([4]; 31.25 µg/mL): 79.31±0.67%; BChE % Inhibition (Mean±SEM) ([4]; 62.5 µg/mL): 80.72±0.58%; BChE % Inhibition (Mean±SEM) ([4]; 125 µg/mL): 81.64±1.04 %; BChE % Inhibition (Mean±SEM) ([4]; 250 µg/mL): 83.54±0.74%; BChE % Inhibition (Mean±SEM) ([4]; 500 µg/mL): 84.13±0.45 %; BChE % Inhibition (Mean±SEM) ([4]; 1,000 µg/mL): 85.17±0.87 %

Reference: PMC8232895 (Drug Design, Development and Therapy, 2021)
